Experimental data taken from patent publication US7550487B2, “Pyrrolidine-3,4-dicarboxamide derivatives” (Hoffmann-La Roche Inc., priority 2004, dated 2009).

Biological target: T1, human factor Xa (Homo sapiens, UniProt P00742)
T1 construct: purchased Enzyme Research Laboratories
Experiment: Factor Xa chromogenic peptide substrate assay (S-2222)
Assay type: biochemical
Method: Factor Xa activity was measured spectrophotometrically in microtiter plates in a final volume of 150 μl using the following conditions: Inhibition of human factor Xa (Enzyme Research Laboratories) was tested at an enzyme concentration of 3 nM using the chromogenic substrate S-2222 (Chromogenix AB, Mölndal, Sweden) at 200 nM. The reaction kinetics of the enzyme and the substrate were linear with both time and the enzyme concentration. The inhibitors were dissolved in DMSO and tested at various concentrations up to 100 μM. The inhibitors were diluted using HNPT buffer consisting of HEPES 100 mM, NaCl 140 mM, PEG 6000 0.1% and Tween 80 0.02%, pH 7.8. […] The velocity of the reaction was determined by the autoreader from the slope of the linear regression fit to 7 time points (1 minute). The initial velocity for each inhibitor concentration was determined by the slope of at least 4 time points in the linear phase by a linear regression fit (mOD/min^2). Apparent dissociation constants Ki were calculated according to Cheng and Prusoff [Cheng, Y. C.; Prusoff, W. H. Relationship between the inhibition constant (Ki) and the concentration of the inhibitor that causes 50 percent inhibition (IC50) of an enzyme reaction. Biochem. Pharmacol. 1973, 22, 3099-3108.] based on the IC50 and the respective Km, determined previously (Ki=IC50/(1+S/Km)). […]

T1 sequence (P00742 235-488 limits assumed): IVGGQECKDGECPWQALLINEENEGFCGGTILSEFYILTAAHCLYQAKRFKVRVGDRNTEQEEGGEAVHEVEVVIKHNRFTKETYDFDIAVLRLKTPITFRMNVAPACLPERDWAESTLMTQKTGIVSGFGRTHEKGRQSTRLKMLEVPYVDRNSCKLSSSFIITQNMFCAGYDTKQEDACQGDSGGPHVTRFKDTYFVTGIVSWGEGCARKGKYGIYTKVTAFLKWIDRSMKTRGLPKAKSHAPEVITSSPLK
T1 sequence (P00742 41-179 partner limits assumed): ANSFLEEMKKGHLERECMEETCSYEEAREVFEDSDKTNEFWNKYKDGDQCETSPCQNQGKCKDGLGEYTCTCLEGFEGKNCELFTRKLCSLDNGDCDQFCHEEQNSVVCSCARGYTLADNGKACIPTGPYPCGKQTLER

## CNC(=O)CN1C[C@H](C(=O)Nc2ccc(Cl)cc2)[C@@H](C(=O)Nc2ccc(-n3ccccc3=O)cc2F)C1 [Example 26, (3R,4R)-1-Methylcarbamoylmethyl-pyrrolidine-3,4-dicarboxylic acid 3-[(4-chloro-phenyl)-amide] 4-{[2-fluoro-4-(2-oxo-2H-pyridin-1-yl)-phenyl]-amide}]
  Ki: 22 nM
